Columns and labels:
Experiment in all cases: relative viability (nuclei count vs DMSO), 5 days (fraction); higher = more cells survive
HCC-78 = test system: HCC-78
Outline: (§1)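 Dosing by pin tool came one day after lung cancer cell lines were seeded in 1536-well plates, using either one drug or a fixed anchor-drug dose plus five library-drug doses (not always all listed) in √10 steps. After 5 days, nuclei were counted on 4× images. Relative viability is treated-well nuclei count divided by vehicle-well nuclei count, and values are medians of duplicate plates.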

NCI-H322M = test system: NCI-H322M
Outline: as §1

SK-MES-1 = test system: SK-MES-1
Outline: as §1

UMC-11 = test system: UMC-11
Outline: as §1

LC-2-ad = test system: LC-2-ad
Outline: as §1

ChaGo-K-1 = test system: ChaGo-K-1
Outline: as §1

LCLC-97TM1 = test system: LCLC-97TM1
Outline: as §1

NCI-H661 = test system: NCI-H661
Outline: as §1

LK-2 = test system: LK-2
Outline: as §1

NCI-H1944 = test system: NCI-H1944
Outline: as §1

LXF-289 = test system: LXF-289
Outline: as §1

BEN = test system: BEN
Outline: as §1

HCC-15 = test system: HCC-15
Outline: as §1

H3255 = test system: H3255
Outline: as §1

NCI-H1666 = test system: NCI-H1666
Outline: as §1

NCI-H2087 = test system: NCI-H2087
Outline: as §1

LU99A = test system: LU99A
Outline: as §1

NCI-H2342 = test system: NCI-H2342
Outline: as §1

NCI-H650 = test system: NCI-H650
Outline: as §1

PC-3 [JPC-3] = test system: PC-3 [JPC-3]
Outline: as §1

NCI-H838 = test system: NCI-H838
Outline: as §1

NCI-H1651 = test system: NCI-H1651
Outline: as §1

NCI-H358 = test system: NCI-H358
Outline: as §1

NCI-H596 = test system: NCI-H596
Outline: as §1

In the case of C[C@@H]1CN(CC(=O)Nc2ccc3c(c2)Cc2cccc(-c4cc(=O)cc(N5CCOCC5)o4)c2S3)C[C@H](C)O1 + O=C(c1cc(Cc2n[nH]c(=O)c3ccccc23)ccc1F)N1CCN(C(=O)C2CC2)CC1 [Olaparib] (partner 8 µM), the relative viability (HCC-78; first compound 0.04 µM) is reported as 0.735, the relative viability (HCC-78; first compound 0.1265 µM) is reported as 0.807 and the relative viability (HCC-78; first compound 0.4 µM) is reported as 0.925. The relative viability (HCC-78; first compound 4 µM) was 0.595, the relative viability (NCI-H322M; first compound 0.04 µM) was 0.632 and the relative viability (NCI-H322M; first compound 0.1265 µM) was 0.794. The relative viability (NCI-H322M; first compound 0.4 µM) was 0.81, the relative viability (NCI-H322M; first compound 4 µM) was 0.643 and the relative viability (SK-MES-1; first compound 0.04 µM) was 0.78. The relative viability (SK-MES-1; first compound 0.1265 µM) was 0.721, the relative viability (SK-MES-1; first compound 0.4 µM) was 0.686 and the relative viability (SK-MES-1; first compound 4 µM) was 0.252. For the same molecule, the relative viability (UMC-11; first compound 0.04 µM) was 0.32, the relative viability (UMC-11; first compound 0.1265 µM) was 0.351 and the relative viability (UMC-11; first compound 0.4 µM) was 0.86. The relative viability (UMC-11; first compound 4 µM) was 0.272, the relative viability (LC-2-ad; first compound 0.04 µM) was 0.657 and the relative viability (LC-2-ad; first compound 0.1265 µM) was 0.653. For the same molecule, the relative viability (LC-2-ad; first compound 0.4 µM) was 0.689, the relative viability (LC-2-ad; first compound 4 µM) was 0.433 and the relative viability (ChaGo-K-1; first compound 0.04 µM) was 0.461. It also gave a relative viability (ChaGo-K-1; first compound 0.1265 µM) of 0.428, a relative viability (ChaGo-K-1; first compound 0.4 µM) of 0.404 and a relative viability (ChaGo-K-1; first compound 4 µM) of 0.389. For the same molecule, the relative viability (LCLC-97TM1; first compound 0.1265 µM) was 0.381, the relative viability (LCLC-97TM1; first compound 0.4 µM) was 0.462 and the relative viability (LCLC-97TM1; first compound 4 µM) was 0.37. The relative viability (NCI-H661; first compound 0.04 µM) was 0.814, the relative viability (NCI-H661; first compound 0.1265 µM) was 0.77 and the relative viability (NCI-H661; first compound 0.4 µM) was 0.784. It also gave a relative viability (NCI-H661; first compound 4 µM) of 0.622, a relative viability (LK-2; first compound 0.04 µM) of 0.852 and a relative viability (LK-2; first compound 0.1265 µM) of 0.724. For the same molecule, the relative viability (LK-2; first compound 0.4 µM) was 0.575, the relative viability (LK-2; first compound 4 µM) was 0.321 and the relative viability (NCI-H1944; first compound 0.1265 µM) was 0.371. The relative viability (NCI-H1944; first compound 0.4 µM) was 0.386, the relative viability (NCI-H1944; first compound 4 µM) was 0.321 and the relative viability (LXF-289; first compound 0.04 µM) was 0.998. It also gave a relative viability (LXF-289; first compound 0.1265 µM) of 1.1, a relative viability (LXF-289; first compound 0.4 µM) of 1.21 and a relative viability (LXF-289; first compound 4 µM) of 1.05. For the same molecule, the relative viability (BEN; first compound 0.04 µM) was 0.969, the relative viability (BEN; first compound 0.1265 µM) was 1.13 and the relative viability (BEN; first compound 0.4 µM) was 1.11. For the same molecule, the relative viability (BEN; first compound 4 µM) was 0.69, the relative viability (HCC-15; first compound 0.04 µM) was 0.722 and the relative viability (HCC-15; first compound 0.1265 µM) was 0.658. The relative viability (HCC-15; first compound 0.4 µM) was 0.586, the relative viability (HCC-15; first compound 4 µM) was 0.286 and the relative viability (H3255; first compound 0.04 µM) was 0.554. It also gave a relative viability (H3255; first compound 0.1265 µM) of 0.532, a relative viability (H3255; first compound 0.4 µM) of 0.522 and a relative viability (H3255; first compound 4 µM) of 0.452. It also gave a relative viability (NCI-H1666; first compound 0.04 µM) of 0.713, a relative viability (NCI-H1666; first compound 0.1265 µM) of 0.767 and a relative viability (NCI-H1666; first compound 0.4 µM) of 0.659. The relative viability (NCI-H1666; first compound 4 µM) was 0.468, the relative viability (NCI-H2087; first compound 0.04 µM) was 0.649 and the relative viability (NCI-H2087; first compound 0.1265 µM) was 0.546. The relative viability (NCI-H2087; first compound 0.4 µM) was 0.602, the relative viability (NCI-H2087; first compound 4 µM) was 0.214 and the relative viability (LU99A; first compound 0.04 µM) was 0.316. For the same molecule, the relative viability (LU99A; first compound 0.1265 µM) was 0.282, the relative viability (LU99A; first compound 0.4 µM) was 0.259 and the relative viability (LU99A; first compound 4 µM) was 0.246. It also gave a relative viability (NCI-H2342; first compound 0.04 µM) of 0.567, a relative viability (NCI-H2342; first compound 0.1265 µM) of 0.52 and a relative viability (NCI-H2342; first compound 0.4 µM) of 0.52. It also gave a relative viability (NCI-H2342; first compound 4 µM) of 0.419, a relative viability (NCI-H650; first compound 0.04 µM) of 0.436 and a relative viability (NCI-H650; first compound 0.1265 µM) of 0.48. It also gave a relative viability (NCI-H650; first compound 0.4 µM) of 0.438, a relative viability (NCI-H650; first compound 4 µM) of 0.258 and a relative viability (PC-3 [JPC-3]; first compound 0.04 µM) of 1.17. It also gave a relative viability (PC-3 [JPC-3]; first compound 0.1265 µM) of 1.08, a relative viability (PC-3 [JPC-3]; first compound 0.4 µM) of 1.16 and a relative viability (PC-3 [JPC-3]; first compound 4 µM) of 0.608. The relative viability (NCI-H838; first compound 0.04 µM) was 0.746, the relative viability (NCI-H838; first compound 0.1265 µM) was 0.685 and the relative viability (NCI-H838; first compound 0.4 µM) was 0.739. It also gave a relative viability (NCI-H838; first compound 4 µM) of 0.323, a relative viability (NCI-H1651; first compound 0.04 µM) of 0.173 and a relative viability (NCI-H1651; first compound 0.1265 µM) of 0.167. For the same molecule, the relative viability (NCI-H1651; first compound 0.4 µM) was 0.178, the relative viability (NCI-H1651; first compound 4 µM) was 0.139 and the relative viability (NCI-H358; first compound 0.04 µM) was 0.654. The relative viability (NCI-H358; first compound 0.1265 µM) was 0.66, the relative viability (NCI-H358; first compound 0.4 µM) was 0.625 and the relative viability (NCI-H358; first compound 4 µM) was 0.178. It also gave a relative viability (NCI-H596; first compound 0.04 µM) of 0.601, a relative viability (NCI-H596; first compound 0.1265 µM) of 0.624 and a relative viability (NCI-H596; first compound 0.4 µM) of 0.641. For the same molecule, the relative viability (NCI-H596; first compound 4 µM) was 0.486.

— the supplement of paper PMC10307832
